We go through 70 compounds from PubChem BioAssay AID449764 (Southern Research Specialized Biocontainment Screening …, 2010).

Some results are limits rather than exact numbers.

This assay relates to Mycobacterium tuberculosis H37Rv growth inhibition, no glycerol. Nature of the assay: Confirmatory growth inhibition assay, Mycobacterium tuberculosis H37Rv, absence of glycerol (AID 449764).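 As to all read-outs here: growth read after 7 days of incubation.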 Conditions: for IC90: measured here: IC90 growth inhibition.

Consider `O=C(Nc1cc(N2CCOCC2)ncn1)NC1(C(F)(F)F)Oc2ccc(Cl)cc2O1` (stereo not given), for which the IC50 is 23.6 µM and the 90% effect concentration (IC90) was found to be 26.9 µM.

On to `CC1CCc2c(sc3ncnc(NCCCOC(C)C)c23)C1` (stereo not given), for which the IC50 is 59.3 µM and the IC90 was determined as 74.2 µM.

In the case of `CCn1cnc2sc(C(=O)Oc3ccc(Br)cc3)c(C)c2c1=O`, the IC50 is 4.83 µM and the IC90 was found to be 8.17 µM.

With `COC(=O)c1ccc(NC(=O)CSc2nc3ccc(N4C(=O)C5C6C=CC(C6)C5C4=O)cc3s2)cc1` (stereo not given), the IC50 is 4.89 µM and the IC90 stood at 6.03 µM.

For `Cc1c(Cl)cccc1-c1ccc(CNCc2ccccn2)o1`, the IC50 was 4.66 µM and the 90% effect concentration (IC90) was 13.6 µM.

Take `COC(=O)CSc1nnc([C@H](CC(C)C)NC(=O)OC(C)(C)C)o1`: the IC50 is 21.9 µM and the concentration for an effect of 90% (IC90) was 29.9 µM.

As for `O=C(Nc1cccc(Cl)c1)N1CCN(C/C=C/c2ccccc2)CC1`, the IC50 is 35 µM and the IC90 worked out at 51.3 µM.

As for `Cc1ccc(CNc2ccc3c(c2)ncn3C(C)(C)C)cc1`, the IC50 was 19.9 µM and the IC90 stood at 28.8 µM.

`CCOC(=O)c1nnc(-c2ccccc2)nc1NCc1ccccc1`: the IC50 was 19.2 µM and the 90% effect concentration (IC90) was greater than 100 µM.

With `COC(=O)c1ccc(-c2ncc(-c3cccc4ccccc34)o2)cc1`, the IC50 is 80.3 µM and the IC90 was greater than 100 µM.

`c1ccc(C2[C@H]3CN(CC4CCCCC4)[C@H](c4ccccc4)C34CC2(c2cccnc2)C4)cc1` (stereo not given in full): the IC50 is 34.2 µM and the 90% effect concentration (IC90) was found to be 45.1 µM.

With `O=C(CCl)Nc1nccs1`, the 50% inhibitory concentration (IC50) was 4.87 µM and the IC90 came to 9.14 µM.

Regarding `COc1ccc(N(CC(=O)Nc2ccccc2C(N)=O)S(=O)(=O)c2ccc(C)c([N+](=O)[O-])c2)cc1`, the IC50 was 96.9 µM and the 90% effect concentration (IC90) was greater than 100 µM.

`Clc1ccc(CCC(Cn2ccnc2)Sc2c(Cl)cccc2Cl)cc1` (stereo not given): the IC50 is 11.8 µM and the IC90 is 13.3 µM.

On to `C/C(=N\Nc1nc2c(s1)CCCC2)c1ccccc1`, for which the IC50 was 30.6 µM and the IC90 amounted to 47.2 µM.

In the case of `O=C(/C=C\c1cccs1)N1CCN(Cc2ccc3c(c2)OCO3)CC1`, the IC50 was 0.6 µM and the IC90 is 1.45 µM.

On to `CC1Cc2ccccc2N1C(=S)NC(=O)c1ccc(Cl)cc1Cl` (stereo not given), for which the half-maximal inhibitory concentration (IC50) was 17 µM and the concentration for an effect of 90% (IC90) is greater than 100 µM.

For the compound `Cc1ccc(NC(=O)C2C3/C=C\CCCCC32)cc1C` (stereo not given), the IC50 was 2.97 µM and the 90% effect concentration (IC90) worked out at 4.49 µM.

`CC1CCN(c2nc(Cl)nc(Nc3ccc([N+](=O)[O-])cc3)n2)CC1`: the IC50 was 78.9 µM and the 90% effect concentration (IC90) was greater than 100 µM.

`COc1ccccc1Nc1nc(N)nc(CCl)n1`: the IC50 is 4.83 µM and the 90% effect concentration (IC90) stood at 12.3 µM.

Take `Cc1nn(Cc2ccccc2)c(C)c1NC(=O)c1cc2nc(-c3ccco3)cc(C(F)(F)F)n2n1`: the IC50 is 45.8 µM and the 90% effect concentration (IC90) stood at 49.6 µM.

Take `CN1CCN(CC(=O)N2CCn3c4c(c5cc(C6CCCCC6)ccc53)CCCC42)CC1` (stereo not given): the concentration for half-maximal inhibition (IC50) is 18 µM and the IC90 amounted to 21.6 µM.

In the case of `CCOc1ccc(OCCSc2ccc(S(=O)(=O)N3CCN(C)CC3)cn2)cc1`, the half-inhibitory concentration (IC50) is 25.5 µM and the IC90 was 28.8 µM.

Regarding `Cc1c(CN(C)C)c2c(n1Cc1ccccc1)C(=O)c1ccc(Br)cc1-2`, the IC50 was 24 µM and the IC90 worked out at 27.8 µM.

As to `Cc1cc(C)n(C(=O)c2ccc([N+](=O)[O-])cc2[N+](=O)[O-])n1`, the IC50 is 8.89 µM and the IC90 was found to be 12.3 µM.

As to `Cn1c(=O)c(C(=O)NNC(=O)c2cccc(Cl)c2)c(O)c2ccccc21`, the IC50 is 2.78 µM and the 90% effect concentration (IC90) is 3.14 µM.

In the case of `O=C(CCl)Nc1sccc1C(=O)c1ccccc1`, the IC50 is 0.45 µM and the IC90 turned out to be 12.6 µM.

With `Cc1ccc(/C(N)=N/OC(=O)N2c3ccccc3Sc3ccccc32)cc1`, the IC50 was 92.7 µM and the 90% effect concentration (IC90) is greater than 100 µM.

Consider `CCCc1cc(NC(=O)CCl)n(-c2ccccc2)n1`, for which the IC50 is 2.93 µM and the IC90 came out at 3.32 µM.

For `COc1cc(/C=N/n2c(-c3ccc4c(c3)NC(=O)CO4)csc2=Nc2cccc(C)c2)ccc1O`, the IC50 is 37.8 µM and the IC90 is greater than 100 µM.

`Cc1ccc(C)c(N2CCN(C(=S)Nc3ccc4nc(N5CCN(C)CC5)cc(C)c4c3)CC2)c1`: the IC50 is 35.7 µM and the concentration for an effect of 90% (IC90) was 55.9 µM.

With `CN1/C(=C\C(=O)C[n+]2ccc(C(=O)c3ccccc3)cc2)C(C)(C)c2ccccc21`, the half-maximal inhibitory concentration (IC50) is 13.3 µM and the 90% effect concentration (IC90) was determined as 21.1 µM.

For the compound `CC1(C)CC(NC(=O)c2ccc(Cl)c(S(=O)(=O)N(Cc3ccccc3)c3ccccc3)c2)CC(C)(C)N1`, the concentration for half-maximal inhibition (IC50) is 28.3 µM and the IC90 came to 43.4 µM.

In the case of `COc1cccc(-n2nnc3c(=O)n(CC(=O)N4CCC(Cc5ccccc5)CC4)cnc32)c1`, the concentration for half-maximal inhibition (IC50) is 51.2 µM and the concentration for an effect of 90% (IC90) is greater than 100 µM.

Regarding `Nc1[nH]n2c(=O)cc(-c3ccccc3)nc2c1N=Nc1ccc2c(c1)OCO2`, the IC50 was 33.2 µM and the IC90 was 50.2 µM.

As for `CSc1nn(-c2ccc(C(=O)OCC(=O)NC(=O)NC(C)C)cc2)c(=S)s1`, the 50% inhibitory concentration (IC50) was 35.7 µM and the 90% effect concentration (IC90) came out at 48.9 µM.

Consider `COc1ccc(C(C[N+](=O)[O-])c2c(-c3ccccc3)cc3ccccn23)c(OC)c1` (stereo not given), for which the 50% inhibitory concentration (IC50) was 45.7 µM and the IC90 was found to be 51.8 µM.

For `CCOC(=O)CSc1cc(=O)n(C)c2cc(Cl)ccc12`, the IC50 is less than 0.2 µM and the IC90 came out at 18.3 µM.

For the compound `O=C(COc1ccccc1)NNc1nc2ccccc2s1`, the IC50 is 92.8 µM and the concentration for an effect of 90% (IC90) is greater than 100 µM.

`COC(=O)c1ccc2c(c1O)C(=O)c1ccccc1C2=O`: the 50% inhibitory concentration (IC50) was 83.6 µM and the IC90 turned out to be 89.4 µM.

In the case of `O=C(NCc1ccccn1)C(=O)Nc1nc(C23CC4CC(CC(C4)C2)C3)cs1`, the IC50 was 6.5 µM and the IC90 amounted to 14.7 µM.

Regarding `COc1ccccc1N(C)S(=O)(=O)c1ccc(C(=O)Nc2ccc3nc(C)sc3c2)cc1`, the concentration for half-maximal inhibition (IC50) was 51.1 µM and the IC90 was 99.8 µM.

For the compound `CCCc1ccc(C2=Nn3c(nnc3C(C)C)SC2)cc1`, the concentration for half-maximal inhibition (IC50) is 29.6 µM and the concentration for an effect of 90% (IC90) turned out to be 51.1 µM.

With `CCOC(=O)c1ccc(NC(=O)CCc2nc(-c3ccc(Cl)cc3)no2)cc1`, the IC50 was 48.1 µM and the 90% effect concentration (IC90) was greater than 100 µM.

In the case of `CCCC[C@@H](CN[C@H](C)CNC)NCC1CCC(C(C)(C)C)CC1` (stereo not given in full), the IC50 was 23.2 µM and the IC90 came to 26.4 µM.

`CCOC(=O)C(C)Sc1ncnc2c1nnn2-c1ccc(F)cc1` (stereo not given): the IC50 is 2.61 µM and the 90% effect concentration (IC90) was found to be 9.68 µM.

For the compound `COc1cc2ccccc2cc1C(=O)Nc1ccc(Cc2ccncc2)cc1`, the concentration for half-maximal inhibition (IC50) is 18.9 µM and the concentration for an effect of 90% (IC90) stood at 27.3 µM.

`COc1ccc(C(=O)Cn2nc(CNc3ccc(Br)cc3)[n+]3c2CCCCC3)cc1`: the IC50 was 12.3 µM and the IC90 stood at 14.1 µM.

Turning to `COc1ccccc1/C(C)=N/NC(=S)NCc1ccccc1`, the IC50 is 23.6 µM and the IC90 was determined as 27.1 µM.

Consider `Nc1ccc(N=Nc2ccccc2)c2cccnc12`, for which the IC50 was 34.7 µM and the IC90 is 64.2 µM.

Turning to `Cc1nn(Cc2ccccc2Cl)c2sc(C(=O)NCCCn3ccnc3)cc12`, the IC50 was 37.4 µM and the IC90 was 56 µM.

For the compound `COc1cccc(NC(=O)C2CCN(Cc3cnn(-c4ccccc4)c3-n3cccc3)CC2)c1`, the IC50 was 54.9 µM and the IC90 came out at 90 µM.

On to `O=C(C[n+]1ccc(C(=O)N/N=C/c2ccc(O)cc2)cc1)c1ccccc1`, for which the half-inhibitory concentration (IC50) was 9.55 µM and the IC90 is greater than 100 µM.

With `N#Cc1cccc(NC(=O)N2CCC(c3nc4c(nnn4Cc4cccc(Cl)c4)c(=O)[nH]3)CC2)c1`, the 50% inhibitory concentration (IC50) was 21.2 µM and the IC90 worked out at 23.3 µM.

As to `C/C(CCc1ccc2c(c1)OCO2)=N\NC(=S)NC(C)C`, the IC50 was 98.4 µM and the IC90 was greater than 100 µM.

For `Cc1cc(/C=N/n2cnnc2)c(C)n1-c1ccc(OCc2ccc(Cl)cc2Cl)cc1`, the IC50 is 17.6 µM and the IC90 was 21.5 µM.

Regarding `O=C(Nc1nc2ccc(F)cc2s1)C1CCN(S(=O)(=O)c2cc([N+](=O)[O-])ccc2Cl)CC1`, the 50% inhibitory concentration (IC50) is 12 µM and the concentration for an effect of 90% (IC90) is 17.6 µM.

As to `O=C1c2ccccc2-c2onc3ccc(Oc4ccccc4)c1c23`, the IC50 was 10.3 µM and the 90% effect concentration (IC90) worked out at 14.4 µM.

With `O=C(CCc1ccc(Oc2cc([N+](=O)[O-])cc([N+](=O)[O-])c2)cc1)N1CCCCCC1`, the IC50 was 14.9 µM and the IC90 amounted to 22.9 µM.

On to `COc1ccc(C[C@H](N)C(=O)N[C@H]2[C@@H](O)[C@H](n3cnc4c(N(C)C)ncnc43)O[C@@H]2CO)cc1`, for which the half-inhibitory concentration (IC50) is 3.95 µM and the IC90 is 5.82 µM.

On to `COc1ccccc1/C=C/C(=O)Nc1ccc(S(=O)(=O)Nc2cc(C)on2)cc1`, for which the 50% inhibitory concentration (IC50) is 28.5 µM and the IC90 is 57.1 µM.

In the case of `COc1cccc(CC2(CO)CCCN(Cc3[nH]c4ccc(C)cc4c3C)C2)c1` (stereo not given), the IC50 was 40.8 µM and the IC90 was 55.8 µM.

In the case of `O=C([O-])c1ccccc1-[n+]1c(-c2ccccc2)cc(-c2ccccc2)cc1-c1ccccc1`, the IC50 is 22 µM and the IC90 came out at 24.5 µM.

`C=CCC1(CC=C)CCCN1C(=O)c1cc(COc2ccc(-n3cncn3)cc2)on1`: the IC50 was 47.3 µM and the IC90 was determined as 57.4 µM.

Turning to `O=C(NCC1CC1)c1cc([N+](=O)[O-])cc([N+](=O)[O-])c1`, the IC50 was 6.57 µM and the IC90 was 11.2 µM.

Regarding `Cc1ccc(C(=O)C2CCN(CC(=O)Nc3nc(C)cs3)CC2)cc1`, the half-inhibitory concentration (IC50) is 48.4 µM and the IC90 was determined as 53.6 µM.

For `OC(CNCCc1ccc(C(F)(F)F)cc1)COC(c1ccccc1)c1ccccc1` (stereo not given), the IC50 was 19.7 µM and the IC90 turned out to be 23.1 µM.

On to `Cc1ccc(C(=O)/C=C/C(=O)c2ccc(C)cc2)cc1`, for which the IC50 is 4.34 µM and the 90% effect concentration (IC90) is 5.87 µM.

Regarding `Cc1c(C(=O)N(C)C)sc2nc(-c3ccccn3)[nH]c(=O)c12`, the half-maximal inhibitory concentration (IC50) was 19.5 µM and the 90% effect concentration (IC90) was 31.4 µM.

In the case of `Cc1cc2nc(C3CCN(CC4COc5ccccc5O4)CC3)[nH]c2cc1C` (stereo not given), the half-inhibitory concentration (IC50) is 17.8 µM and the IC90 turned out to be 28.7 µM.

What is called IC50 is the concentration that gives 50% inhibition. A word on the IC90: it is the concentration at which the effect reaches the 90% level. The low end stands for an effect from little substance, the high end for a need for much substance.
